From patent publication US9512086B2, “Compound for promoting apoptosis of cancer cells and a pharmaceutical composition containing the same and uses thereof” (National Chiao Tung University, priority 2014, dated 2016)

Columns and labels:
[1] = tested on: H1299 human non-small cell lung cell line; test: MTT cell viability, H1299 cells; assay type: cell-based; settings: 24 hours
Description: (§1) After drug treatment, the cells were washed with PBS and replaced with fresh complete RPMI-1640 medium for 2 days. Thereafter, the medium was replaced and the cells were incubated with 0.5 mg/mL of MTT reagent (Sigma Chemical Co., St. Louis, Mo.) in complete RPMI-1640 medium for 4 hours. The intensity of formazan was measured at 565 nm using a plate reader (VERSAmax, Molecular Dynamics, Sunnyvale, Calif.). The relative percentage of cell viability was calculated by dividing the absorbance of treated cells by that of the control in each experiment.

[2] = tested on: CL3 human lung cancer cell line; test: MTT cell viability, CL3 cells; assay type: cell-based; settings: 24 hours
Description: as §1

EGFR protein kinase = target: T1, EGFR protein kinase (Homo sapiens, UniProt P00533); test: ADP-Glo Kinase Assay, EGFR protein kinase activity; assay type: biochemical
T1 construct: purchased Promega
T1 sequence (P00533 25-1210): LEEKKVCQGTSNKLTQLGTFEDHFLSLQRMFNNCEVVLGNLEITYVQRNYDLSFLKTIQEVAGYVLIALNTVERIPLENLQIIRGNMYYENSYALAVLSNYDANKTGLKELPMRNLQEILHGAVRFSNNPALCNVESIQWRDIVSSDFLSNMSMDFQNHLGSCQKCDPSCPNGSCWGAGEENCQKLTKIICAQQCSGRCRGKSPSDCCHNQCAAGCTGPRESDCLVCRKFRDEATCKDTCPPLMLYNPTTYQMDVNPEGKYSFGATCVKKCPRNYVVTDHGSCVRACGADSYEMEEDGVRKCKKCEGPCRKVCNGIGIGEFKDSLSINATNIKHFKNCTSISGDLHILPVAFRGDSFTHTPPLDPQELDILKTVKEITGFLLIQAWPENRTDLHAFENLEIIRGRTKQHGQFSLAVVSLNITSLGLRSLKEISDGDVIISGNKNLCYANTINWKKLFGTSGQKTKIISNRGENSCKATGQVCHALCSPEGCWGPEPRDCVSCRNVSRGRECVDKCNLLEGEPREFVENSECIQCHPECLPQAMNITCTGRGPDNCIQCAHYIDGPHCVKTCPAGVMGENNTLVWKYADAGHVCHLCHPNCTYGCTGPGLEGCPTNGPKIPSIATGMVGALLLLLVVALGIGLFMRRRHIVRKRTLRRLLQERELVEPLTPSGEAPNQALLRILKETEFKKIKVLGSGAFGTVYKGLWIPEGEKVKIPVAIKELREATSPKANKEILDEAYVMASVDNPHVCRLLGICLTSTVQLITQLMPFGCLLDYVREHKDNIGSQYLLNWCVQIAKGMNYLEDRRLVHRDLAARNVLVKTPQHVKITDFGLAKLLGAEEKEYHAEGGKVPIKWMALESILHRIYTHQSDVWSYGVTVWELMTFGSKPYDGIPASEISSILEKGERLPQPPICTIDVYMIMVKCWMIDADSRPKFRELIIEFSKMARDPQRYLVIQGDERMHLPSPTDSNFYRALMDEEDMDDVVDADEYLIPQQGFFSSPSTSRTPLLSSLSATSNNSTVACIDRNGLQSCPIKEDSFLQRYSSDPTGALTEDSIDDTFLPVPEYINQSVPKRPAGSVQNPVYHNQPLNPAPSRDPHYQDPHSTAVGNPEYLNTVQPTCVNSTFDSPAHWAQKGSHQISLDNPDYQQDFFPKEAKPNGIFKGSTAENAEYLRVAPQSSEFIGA

[3] = target: T2, MKNK2 (MAPK-interacting kinase-2) (Homo sapiens, UniProt Q9HBH9); test: KinaseProfiler assay, MKNK2; assay type: biochemical; settings: read-out: KAR value (kinase activity remaining)
T2 construct: purchased Merck Millipore (KinaseProfiler service)
T2 sequence (Q9HBH9 whole entry): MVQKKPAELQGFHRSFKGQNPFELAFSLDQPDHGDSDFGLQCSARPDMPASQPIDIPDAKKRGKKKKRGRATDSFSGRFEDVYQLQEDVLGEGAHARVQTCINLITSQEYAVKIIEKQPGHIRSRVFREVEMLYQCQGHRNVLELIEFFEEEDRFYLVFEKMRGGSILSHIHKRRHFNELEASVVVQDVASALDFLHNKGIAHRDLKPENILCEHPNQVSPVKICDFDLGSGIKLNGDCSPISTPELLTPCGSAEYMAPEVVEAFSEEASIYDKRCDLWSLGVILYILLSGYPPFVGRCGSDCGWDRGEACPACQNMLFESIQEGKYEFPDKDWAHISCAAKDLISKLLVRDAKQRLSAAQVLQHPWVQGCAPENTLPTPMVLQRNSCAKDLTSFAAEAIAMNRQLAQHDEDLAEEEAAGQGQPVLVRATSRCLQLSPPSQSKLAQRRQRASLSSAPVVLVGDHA
Description: (§2) The kinase activity remaining (KAR) value is […] related to kinase activity. […]

[4] = target: T3, RET (product of ret proto-oncogene) (Homo sapiens, UniProt P07949); test: KinaseProfiler assay, RET; assay type: biochemical; settings: RET; 10 μM; read-out: KAR value (kinase activity remaining)
T3 construct: purchased Merck Millipore (KinaseProfiler service)
T3 sequence (P07949 29-1114): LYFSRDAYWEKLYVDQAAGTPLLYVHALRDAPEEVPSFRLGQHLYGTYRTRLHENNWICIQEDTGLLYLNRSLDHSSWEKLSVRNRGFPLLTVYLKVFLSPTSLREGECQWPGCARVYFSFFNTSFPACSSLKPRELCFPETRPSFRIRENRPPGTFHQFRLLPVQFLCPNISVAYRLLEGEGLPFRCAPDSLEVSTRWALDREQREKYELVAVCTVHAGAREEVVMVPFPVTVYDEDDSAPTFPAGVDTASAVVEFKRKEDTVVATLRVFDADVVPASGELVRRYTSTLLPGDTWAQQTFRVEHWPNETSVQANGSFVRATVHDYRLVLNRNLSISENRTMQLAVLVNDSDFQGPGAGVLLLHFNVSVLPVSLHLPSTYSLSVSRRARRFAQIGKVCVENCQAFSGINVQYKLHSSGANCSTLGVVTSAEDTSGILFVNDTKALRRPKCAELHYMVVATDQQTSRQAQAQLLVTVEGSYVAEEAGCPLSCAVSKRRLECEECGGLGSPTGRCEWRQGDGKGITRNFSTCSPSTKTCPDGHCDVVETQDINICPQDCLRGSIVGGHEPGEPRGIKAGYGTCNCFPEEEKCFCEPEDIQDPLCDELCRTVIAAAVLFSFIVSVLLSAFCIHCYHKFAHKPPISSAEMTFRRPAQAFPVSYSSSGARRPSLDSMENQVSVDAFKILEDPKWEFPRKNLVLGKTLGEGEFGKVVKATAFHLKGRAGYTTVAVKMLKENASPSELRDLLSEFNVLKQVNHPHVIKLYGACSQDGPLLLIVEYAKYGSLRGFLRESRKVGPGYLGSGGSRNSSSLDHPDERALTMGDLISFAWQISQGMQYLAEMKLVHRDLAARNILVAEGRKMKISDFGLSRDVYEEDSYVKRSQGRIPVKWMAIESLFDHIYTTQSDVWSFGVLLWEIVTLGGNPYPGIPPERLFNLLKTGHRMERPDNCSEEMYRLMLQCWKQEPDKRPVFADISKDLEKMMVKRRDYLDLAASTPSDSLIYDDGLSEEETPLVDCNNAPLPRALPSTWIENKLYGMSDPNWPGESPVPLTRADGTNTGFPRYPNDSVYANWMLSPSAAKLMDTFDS
Description: as §2

LCK (lymphocyte kinase) = target: T4, LCK (lymphocyte kinase) (Homo sapiens, UniProt P06239); test: KinaseProfiler assay, LCK; assay type: biochemical; settings: read-out: KAR value (kinase activity remaining)
T4 construct: purchased Merck Millipore (KinaseProfiler service)
T4 sequence (P06239 whole entry): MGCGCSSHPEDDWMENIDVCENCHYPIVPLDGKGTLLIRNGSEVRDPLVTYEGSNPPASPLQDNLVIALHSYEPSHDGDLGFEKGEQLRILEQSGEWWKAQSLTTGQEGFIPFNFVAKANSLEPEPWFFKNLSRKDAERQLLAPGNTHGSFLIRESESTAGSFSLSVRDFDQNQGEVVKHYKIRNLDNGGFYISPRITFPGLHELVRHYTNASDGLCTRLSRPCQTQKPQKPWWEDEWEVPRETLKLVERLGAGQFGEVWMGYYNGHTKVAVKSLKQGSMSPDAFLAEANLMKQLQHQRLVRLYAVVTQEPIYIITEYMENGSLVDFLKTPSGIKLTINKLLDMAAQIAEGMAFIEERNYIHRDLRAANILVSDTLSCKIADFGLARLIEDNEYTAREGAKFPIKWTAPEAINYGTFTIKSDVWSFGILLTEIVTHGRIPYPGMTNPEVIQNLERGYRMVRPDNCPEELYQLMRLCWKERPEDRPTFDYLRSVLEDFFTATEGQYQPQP

[5] = target: T5, LIMK1 (LIM motif-containing protein kinase-1) (Homo sapiens, UniProt P53667); test: KinaseProfiler assay, LIMK1; assay type: biochemical; settings: LIMK1; 10 μM; read-out: KAR value (kinase activity remaining)
T5 construct: purchased Merck Millipore (KinaseProfiler service)
T5 sequence (P53667 whole entry): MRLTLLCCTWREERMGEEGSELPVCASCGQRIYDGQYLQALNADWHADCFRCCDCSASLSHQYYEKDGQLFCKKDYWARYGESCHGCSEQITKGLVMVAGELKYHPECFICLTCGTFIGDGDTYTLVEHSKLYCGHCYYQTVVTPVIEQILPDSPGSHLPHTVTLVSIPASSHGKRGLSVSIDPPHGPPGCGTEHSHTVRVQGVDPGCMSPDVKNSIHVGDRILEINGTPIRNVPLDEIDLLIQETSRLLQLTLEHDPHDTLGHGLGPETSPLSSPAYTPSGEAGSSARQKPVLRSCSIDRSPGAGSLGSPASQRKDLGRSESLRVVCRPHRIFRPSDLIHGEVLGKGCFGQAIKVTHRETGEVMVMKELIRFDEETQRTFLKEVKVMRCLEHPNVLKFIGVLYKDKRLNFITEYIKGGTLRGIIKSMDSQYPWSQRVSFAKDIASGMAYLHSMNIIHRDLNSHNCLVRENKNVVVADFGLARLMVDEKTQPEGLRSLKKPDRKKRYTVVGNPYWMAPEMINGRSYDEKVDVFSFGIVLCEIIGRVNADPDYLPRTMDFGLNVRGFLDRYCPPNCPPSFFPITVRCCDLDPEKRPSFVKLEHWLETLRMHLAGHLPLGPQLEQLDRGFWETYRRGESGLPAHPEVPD
Description: as §2

A549 cells [6] = test: Annexin V-PI apoptosis analysis by flow cytometry; assay type: cell-based, human; settings: 10-40 μM for 24 hours
Description: The Annexin V-PI staining kit (BioVision, Mountain View, Calif.) was used to exam the cells by incubating with fluorescent isothiocyanate (FITC)-conjugated-Annexin V and PI according to the manufacturer's instruction. […] The cells were cultured in 60-mm Petri dish at a density of 7×10^5 cells for 16 to 20 hours. […] The cells were trypsinized and collected by centrifugation at 1500 rpm for 5 minutes. Thereafter, the cells were incubated with 500 μl Annexin V-PI labeling solution (containing 5 μl Annexin V-FITC and 5 μl PI in PBS) at room temperature in the dark for 5 minutes. To avoid cell aggregation, the cell solutions were filtered through a nylon mesh membrane (Becton-Dickinson, San Jose, Calif.). Finally, the samples were analyzed immediately using flow cytometer (FACS Calibur, BD Biosciences, Heidelberg, Germany). The percentage of Annexin V-PI staining cells was quantified from a minimum of 10,000 cells by CellQuest software (BD Biosciences).

A549 cells [7] = test: Cell growth, cell number by hemocytometer; assay type: cell-based, human; settings: 30 μM for 24 hours, then cultured 2-6 days
Description: The cells were washed with PBS after the treatment. […] The cell number was calculated with hemocytometer.

survivin [8] = test: RT-PCR of survivin gene expression in A549 cells; assay type: cell-based, human; settings: 0 to 40 μM, 24 hours
Description: After the treatment, total cellular RNA was purified by ZR RNA MiniPrep™ (Zymo Research, Irvine, Calif.) according to the manufacturer's protocol. RNA concentrations were determined by spectrophotometry. cDNAs were synthesized by SuperScript™ III reverse transcriptase with oligo (dT)12-18 primer (Invitrogen). Each reverse transcript was amplified with GAPDH as an internal control. Reverse transcription polymerase chain reaction (RT-PCR) was performed by a DNA thermal cycler (Mastercycler gradient, Hamburg, Germany). […] The conditions of RT-PCR are stated as followed: the initial denaturation was performed at 94° C. for 2 minutes, followed by 30 cycles at 94° C. for 30 seconds, 56° C. for 30 seconds, and 72° C. for 40 seconds; and 72° C. for 5 minutes. The PCR products were visualized on 1.2% agarose gels with ethidium bromide staining under UV transillumination, and photograph was taken by a camera DH27-S3 (Medclub, Taoyuan, Taiwan).

A549 cells [9] = test: Survivin overexpression (pCT-GFP-sur8 transfection) and MTT cell viability; assay type: cell-based, human; settings: A549 cells transfected with pCT-GFP-sur8 vs pCT-GFP2
Description: To further determine the effect that Analogue-18 inhibits surviving so as to induce apoptosis. The pCT-GFP2 and pCT-GFP-sur8 were employed for transfection using Lipofectamine™ 2000 (Invitrogen) according to the manufacturer's instructions. The pCT-GFP-sur8 overexpressed surviving, and the pCT-GFP2 only overexpressed green fluorescent protein and was used as a control. A549 cells were plated in 60-mm Petri dish at a density of 2×10^6 per well for 16 to 20 hours, then were transfected with 20 μg of pCT-GFP-sur8 or pCT-GFP2 in serum-free medium for 8 hours at 37° C. in a CO2 incubator. Then, the equal amount medium with 20% fetal bovine serum (FBS) was added without removing the transfection mixture. And proceed the incubation for additional 24 hours. After transfection, the cells were subjected to cytotoxicity assay according to Example 2 and Western blot analysis according to Example 4.

[10] = tested on: A549 human lung xenograft tumors; test: Tumor growth of xenograft human lung tumors in nude mice; assay type: in vivo; settings: 30 mg/kg three times every 4 days, day 16; control groups 406.52 mm^3
Description: (§3) The present invention determines the effect of Analogue-18 on tumor growth of the xenograft human lung tumors in nude mice. BALB/cAnN.Cg-FoxnInu/CrlNarl mice (3-week-old male) were obtained from BioLASCO (BioLASCO Co., Ltd., Taipei, Taiwan). After 2 weeks for environmental adaption, the mice were used for human lung cancer cell inoculation. Solid A549 flank tumors were established by subcutaneous injection of 2×10^6 cells. After 10 days, the mice bearing A549 human lung xenograft tumors were injected with 100 μl corn oil (control) or 30 mg/kg Analogue-18 for three times every 4 days. The tumor size of the mice was measured by a digital caliper every 4 days and calculated by the following formula: (length)×(width)^2×0.5. The xenograft tumors were harvested from scarified mice. The tumors were homogenized and the total lysate were subjected to Western blot analysis according to Example 4.

survivin [11] = test: Western blot of survivin protein in xenograft tumors; assay type: in vivo, nude mice; settings: 30 mg/kg three times every 4 days
Description: as §3

caspase 3 = test: Western blot of active caspase 3 in A549 cells; settings: 10-40 μM, 24 hours
Description: The protease inhibitors including 1 μg/ml aprotinin, 0.5 μg/ml leupeptin, and 100 μg/ml 4-(2-aminoethyl)benzenesulfonyl fluoride were added to the cell suspensions. The lysates were vibrated for 30 minutes at 4° C. and centrifuged at 10,000 rpm for 10 minutes. The protein concentrations were determined by the BCA protein assay kit (Pierce, Rockford, Ill.). […] The membranes were blocked overnight at 4° C. using blocking buffer (5% non-fat dried milk in solution containing 50 mM Tris/HCl (pH 8.0), 2 mM CaCl2, 80 mM NaCl, 0.05% Tween 20 and 0.02% sodium azide). The membranes were sequentially hybridized with primary antibody and followed with a horseradish peroxidase-conjugated secondary antibody. The protein bands were visualized on the X-ray film using the enhanced chemiluminescence detection system (PerkinElmer Life and Analytical Sciences, Boston, Mass.). […] To verify equal protein loading and transfer, actin was used as the protein loading control. The gel digitizing software, Un-Scan-It gel (Ver. 5.1, Silk Scientific, Inc., Orem, Utah), was used to analyze the intensity of protein bands on X-ray film.
A549 cells were plated at a density of 1×10^6 cells per 60-mm Petri dish in complete medium for 16 to 20 hours. […] To verify equal protein loading and transfer, actin was used as the protein loading control.

CCCCCCCCCCCCOC(=O)CCC(=O)N1CCN(CCCOc2cc3c(Nc4ccc(F)c(Cl)c4)ncnc3cc2OC)CC1 [Analogue-18, dodecyl 4-(4-(3-(4-(3-chloro-4-fluorophenylamino)-7-methoxyquinazolin-6-yloxy)propyl)piperazin-1-yl)-4-oxobutanoate]
reducing cell viability ([1]; H1299, 0 to 40 μM, compared with Iressa): more effective on reducing cell viability than Iressa | toxicity effects ([1]; H1299, 40 μM): more than 99% | reducing cell viability ([2]; CL3, 0 to 40 μM, compared with Iressa): more effective on reducing cell viability than Iressa | toxicity effects ([2]; CL3, 40 μM): more than 99% | IC50 (EGFR protein kinase; by the IVIS system): ~130 nM | IC50 (EGFR protein kinase; by the Luminometer): ~126 nM | remaining activity at 10 µM [3]: 85% | remaining activity at 10 µM [4]: 98% | remaining activity at 10 µM (LCK (lymphocyte kinase)): 89% | remaining activity at 10 µM [5]: 82% | average of total apoptosis (A549 cells [6]): around 67.9% | cell growth of A549 cells (A549 cells [7]): inhibit cell growth of A549 cells, and Analogue-18 is more effective | survivin gene expression (survivin [8]): significantly inhibited in a concentration-dependent manner | resistance of survivin-overexpressing cells to induced apoptosis (A549 cells [9]): the transfection of pCT-GFP-sur8 was more resistant to the Analogue-18-induced apoptosis than pCT-GFP2 | average tumor size [10]: 118.19 mm^3 | survivin protein levels of xenograft tumors (survivin [11]): significantly reduced about half amount | active form of caspase 3 (caspase 3): significantly induced
